The values below come from ChEMBL document CHEMBL1129438, “Neighboring group catalysis in the design of nucleotide prodrugs” (J Med Chem, 1996).

Where only a bound is given, the exact number is not on record here.

The nature of series [1]: Half life (t 1/2) during pig liver esterase-catalyzed hydrolysis. The series is classed as ADME, organism-based, Sus scrofa.
The nature of series [2]: Half life (t 1/2) during hydrolysis caused by human serum. The series is classed as ADME, organism-based.
Series [3] in a line: Half life (t 1/2) during hydrolysis catalyzed by brain extract. The series is classed as ADME, tissue-based.
Series [4] is described as follows: Half life (t 1/2) during base-catalyzed hydrolysis. The format is ADME.

Broadly, the half-life is the time needed for the level to fall by half in the phase considered. Read a low half-life as fast loss. `COC(=O)c1ccccc1OP(=O)(OC[C@H]1O[C@@H](n2ccc(=O)[nH]c2=O)C[C@@H]1N=[N+]=[N-])OC[C@H]1O[C@@H](n2ccc(=O)[nH]c2=O)C[C@@H]1N=[N+]=[N-]`: the half-life in series [1] was 20 h; in series [2], 4 h; in series [3], 4 h; in series [4], 1.1 h.

Consider `[N-]=[N+]=N[C@H]1C[C@H](n2ccc(=O)[nH]c2=O)O[C@@H]1COP(=O)(OC[C@H]1O[C@@H](n2ccc(=O)[nH]c2=O)C[C@@H]1N=[N+]=[N-])Oc1ccccc1C(=O)Oc1ccccc1`, for which the half-life is 1 h in series [1], 4 h in series [2], 5 h in series [3] and 1.1 h in series [4].

With `[N-]=[N+]=N[C@H]1C[C@H](n2ccc(=O)[nH]c2=O)O[C@@H]1COP(=O)(OC[C@H]1O[C@@H](n2ccc(=O)[nH]c2=O)C[C@@H]1N=[N+]=[N-])Oc1ccccc1`, the half-life in series [1], in series [2], in series [3] and in series [4] was 17 h in each case.

As to `O=C(OC1O[C@H](CO)[C@@H](O)[C@H](O)[C@H]1O)c1ccccc1OP(=O)(OC[C@@H]1CC[C@H](n2ccc(=O)[nH]c2=O)O1)OC[C@@H]1CC[C@H](n2ccc(=O)[nH]c2=O)O1` (stereo partly specified), the half-life was over 48 h in series [1], 48 h in series [2], over 72 h in series [3] and 17 h in series [4].
